Values of other authors in patent US20120097160A1, “AGGLOMERATE FORMULATIONS INCLUDING ACTIVE PHARMACEUTICAL AGENTS WITH TARGETED PARTICLE SIZES” (SCHERING CORPORATION, priority 2009, published 2012).
Where two headings read alike, the source gives them in different places.

solubility (acetone): soluble | solubility (chloroform): soluble | solubility (ethanol): slightly soluble | solubility (isopropanol): slightly soluble | solubility (methanol): slightly soluble | solubility (tetrahydrofuran): freely soluble | solubility (water): practically insoluble
Compound: C[C@@H]1C[C@H]2[C@@H]3CCC4=CC(=O)C=C[C@]4(C)[C@@]3(Cl)[C@@H](O)C[C@]2(C)[C@@]1(OC(=O)c1ccco1)C(=O)CCl [Mometasone furoate, 9,21-Dichloro-11(beta), 17-dihydroxy-16(alpha)-methylpregna-1,4-diene-3,20-dione 17-(2 furoate)]
